From patent publication US10144706B2 (BRISTOL-MYERS SQUIBB COMPANY, priority 2016, dated 2018)
Where two headings read alike, the source gives them in different places.

Target: T1, PD-1/PD-L1 interaction (PD-1-Ig / PD-L1-His) (Homo sapiens, UniProt Q9NZQ7)
T1 construct: hPDL1(18-239)-TVMV-His; TVMV protease site linker (C); made in house; host or cells: HEK293T
Test: PD-1/PD-L1 Homogenous Time-Resolved Fluorescence (HTRF) binding assay
Conditions: PD-L1-His 10 nM, PD-1-Ig 20 nM, read-out: Range or IC50
Procedure, shortened: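 Human PD-L1-His (10 nM final) was pre-incubated with inhibitor for 15 min, then PD-1-Ig (20 nM final) was added for a further 15 min in dPBS with 0.1% BSA and 0.05% Tween-20. Binding was detected by HTRF using Eu-cryptate anti-Ig (1 nM) and APC anti-His (20 nM).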

T1 sequence (Q9NZQ7 with tags, fused parts or gaps): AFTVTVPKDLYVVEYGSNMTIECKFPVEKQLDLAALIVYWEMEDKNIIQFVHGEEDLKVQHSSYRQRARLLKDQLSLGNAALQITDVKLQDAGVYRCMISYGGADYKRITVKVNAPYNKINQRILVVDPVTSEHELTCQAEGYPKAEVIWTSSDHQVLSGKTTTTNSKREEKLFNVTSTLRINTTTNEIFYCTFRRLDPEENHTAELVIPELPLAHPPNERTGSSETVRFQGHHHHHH

IC50 (IC50 range class)	IC50 (numeric IC50)	Compound
0.04 to 20 nM		Cc1c(COc2cc(OCc3cncc(C#N)c3)c(CNC(CO)(Cc3ccccc3)C(=O)O)cc2Cl)cccc1-c1cccc(COc2cc(OCc3cncc(C#N)c3)c(CNC(CO)(Cc3ccccc3)C(=O)O)cc2Cl)c1C (stereo not drawn) [Example 40200]
	1.1 nM	Cc1c(COc2cc(OCc3cncc(C#N)c3)c(CNC(C)(CO)C(=O)O)cc2Cl)cccc1-c1cccc(COc2cc(OCc3cncc(C#N)c3)c(CNC(C)(CO)C(=O)O)cc2Cl)c1C (stereo not drawn) [Example 40210]
0.04 to 20 nM		Cc1c(COc2cc(OCc3cncc(C#N)c3)c(CNC[C@H](O)C(=O)O)cc2Cl)cccc1-c1cccc(COc2cc(OCc3cncc(C#N)c3)c(CNC[C@H](O)C(=O)O)cc2Cl)c1C [Example 40220]
0.04 to 20 nM		Cc1c(COc2cc(OCc3cncc(C#N)c3)c(CNCC(O)CC(=O)O)cc2Cl)cccc1-c1cccc(COc2cc(OCc3cncc(C#N)c3)c(CNCC(O)CC(=O)O)cc2Cl)c1C (stereo not drawn) [Example 40230]
0.04 to 20 nM		Cc1c(COc2cc(OCc3cncc(C#N)c3)c(CNC(C)(CO)CO)cc2Cl)cccc1-c1cccc(COc2cc(OCc3cncc(C#N)c3)c(CNC(C)(CO)CO)cc2Cl)c1C [Example 40250]
0.04 to 20 nM		Cc1c(COc2cc(OCc3cncc(C#N)c3)c(CN[C@@H](CO)C(=O)O)cc2Cl)cccc1-c1cccc(COc2cc(OCc3cncc(C#N)c3)c(CN[C@H](CO)C(=O)O)cc2Cl)c1C [Example 40260]
0.04 to 20 nM		Cc1c(COc2cc(OCc3cncc(C#N)c3)c(CNC(CCO)C(=O)O)cc2Cl)cccc1-c1cccc(COc2cc(OCc3cncc(C#N)c3)c(CNC(CCO)C(=O)O)cc2Cl)c1C (stereo not drawn) [Example 40270]
0.04 to 20 nM		Cc1c(COc2cc(OCc3cncc(C#N)c3)c(CNC/C=C/C(=O)O)cc2Cl)cccc1-c1cccc(COc2cc(OCc3cncc(C#N)c3)c(CNC/C=C/C(=O)O)cc2Cl)c1C [Example 40280]
90.1 to 1000 nM		COC(=O)[C@@H]1CCCCN1Cc1cc(Cl)c(OCc2cccc(-c3cccc(COc4cc(OCc5cncc(C#N)c5)c(CN5CCCC[C@H]5C(=O)OC)cc4Cl)c3C)c2C)cc1OCc1cncc(C#N)c1 [Example 40300]
20.1 to 90 nM		COC(=O)C1CCN(Cc2cc(Cl)c(OCc3cccc(-c4cccc(COc5cc(OCc6cncc(C#N)c6)c(CN6CCC(C(=O)OC)C(O)C6)cc5Cl)c4C)c3C)cc2OCc2cncc(C#N)c2)CC1O (stereo not drawn) [Example 40310]
0.04 to 20 nM		COC[C@H](NCc1cc(Cl)c(OCc2cccc(-c3cccc(COc4cc(OCc5cncc(C#N)c5)c(CN[C@@H](COC)C(=O)O)cc4Cl)c3C)c2C)cc1OCc1cncc(C#N)c1)C(=O)O [Example 40340]
0.04 to 20 nM		Cc1c(COc2cc(OCc3cncc(C#N)c3)c(CN3CCC[C@H]3C(=O)O)cc2Cl)cccc1-c1cccc(COc2cc(OCc3cncc(C#N)c3)c(CN3CCC[C@H]3C(=O)O)cc2Cl)c1C [Example 40350]
0.04 to 20 nM		Cc1c(COc2cc(OCc3cncc(C#N)c3)c(CN[C@H](C(=O)O)c3ccccc3)cc2Cl)cccc1-c1cccc(COc2cc(OCc3cncc(C#N)c3)c(CN[C@H](C(=O)O)c3ccccc3)cc2Cl)c1C [Example 40360]
0.04 to 20 nM		Cc1c(COc2cc(OCc3cncc(C#N)c3)c(CN3CCOC[C@@H]3C(=O)O)cc2Cl)cccc1-c1cccc(COc2cc(OCc3cncc(C#N)c3)c(CN3CCOC[C@@H]3C(=O)O)cc2Cl)c1C [Example 40370]
0.04 to 20 nM		Cc1c(COc2cc(OCc3cncc(C#N)c3)c(CN3CCCC(C(=O)O)C3)cc2Cl)cccc1-c1cccc(COc2cc(OCc3cncc(C#N)c3)c(CN3CCCC(C(=O)O)C3)cc2Cl)c1C (stereo not drawn) [Example 40380]
20.1 to 90 nM		Cc1c(COc2cc(OCc3cncc(C#N)c3)c(CNC(CC(=O)O)c3ccc(F)cc3)cc2Cl)cccc1-c1cccc(COc2cc(OCc3cncc(C#N)c3)c(CNC(CC(=O)O)c3ccc(F)cc3)cc2Cl)c1C (stereo not drawn) [Example 40390]
0.04 to 20 nM		Cc1c(COc2cc(OCc3cncc(C#N)c3)c(CNC(C)CC(=O)O)cc2Cl)cccc1-c1cccc(COc2cc(OCc3cncc(C#N)c3)c(CNC(C)CC(=O)O)cc2Cl)c1C (stereo not drawn) [Example 40400]
0.04 to 20 nM		Cc1c(COc2cc(OCc3cncc(C#N)c3)c(CNCCC(=O)O)cc2Cl)cccc1-c1cccc(COc2cc(OCc3cncc(C#N)c3)c(CNCCC(=O)O)cc2Cl)c1C [Example 40410]
